Laboratory results: paper PMC6858373 (Scientific Reports, 2019)
Read-outs that look alike come from different tables or passages of the source.

What was measured:
[1] = biological target: full-length P. pyralis luciferase (Photinus pyralis, UniProt P08659, K549A/L550V/N119G/N50D/S548I); type: cell-based
[2] = biological target: T1, FGF14:Nav1.6 C-tail complex (Homo sapiens, UniProt Q92915+Q9UQD0); test: Split-luciferase complementation assay (LCA) in Clone V double stable HEK293 cells; type: cell-based
T1 construct: polymerase chain reaction (PCR) amplification of the FGF14 open reading frame (nt 1–855); C-terminal fragment of Nav1.6 (amino acids 1763–1976) fused with CD4ΔC-tail (amino acids 1–395); expressed in transfected cells
T1 sequence (Q92915 1-252 isoform Q92915-2): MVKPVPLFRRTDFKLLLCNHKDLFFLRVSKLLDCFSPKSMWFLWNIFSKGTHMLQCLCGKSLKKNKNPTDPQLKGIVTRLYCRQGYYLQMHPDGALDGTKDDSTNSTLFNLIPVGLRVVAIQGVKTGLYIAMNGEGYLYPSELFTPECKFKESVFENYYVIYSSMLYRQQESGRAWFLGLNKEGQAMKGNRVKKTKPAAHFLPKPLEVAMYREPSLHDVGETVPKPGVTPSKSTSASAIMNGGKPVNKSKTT
T1 sequence (Q9UQD0 1763-1976 limits assumed): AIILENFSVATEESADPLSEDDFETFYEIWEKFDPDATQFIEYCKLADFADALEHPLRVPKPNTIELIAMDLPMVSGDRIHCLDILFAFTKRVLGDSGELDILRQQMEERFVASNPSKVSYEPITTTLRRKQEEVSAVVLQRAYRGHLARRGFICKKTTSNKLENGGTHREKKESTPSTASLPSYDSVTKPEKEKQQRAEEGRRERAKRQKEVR

[3] = CC_NCI screening, full-length luciferase counter-screen luminescence, normalized to on-plate 0.3% DMSO controls
[4] = CC_NCI screening, full-length luciferase counter-screen, normalized to on-plate 0.3% DMSO controls
[5] = CC_NCI screening, LCA luminescence, biological replicate Set 1, normalized to on-plate 0.3% DMSO controls (n=16 per plate)
[6] = CC_NCI screening, LCA luminescence, biological replicate Set 2, normalized to on-plate 0.3% DMSO controls (n=16 per plate)
[7] = CC_NCI screening, LCA, biological replicate Set 1, normalized to on-plate 0.3% DMSO controls
[8] = CC_NCI screening, LCA, biological replicate Set 2, normalized to on-plate 0.3% DMSO controls
[9] = CC_NCI screening, average of Set 1 and Set 2, normalized to 0.3% DMSO controls
[10] = CC_NCI screening, normalized to on-plate 0.3% DMSO controls
[11] = CC_NCI screening, biological replicate Set 1, normalized to on-plate 0.3% DMSO controls
[12] = CC_NCI screening, biological replicate Set 1, normalized to on-plate 0.3% DMSO controls (n=16 per plate)
[13] = CC_NCI screening, biological replicate Set 2, normalized to on-plate 0.3% DMSO controls
[14] = CC_NCI screening, biological replicate Set 2, normalized to on-plate 0.3% DMSO controls (n=16 per plate)
[15] = average of Set 1 and Set 2, normalized to 0.3% DMSO controls

full-length P. pyralis luciferase, sequence (P08659 whole entry N50D/N119G/S548I/K549A/L550V, looked up): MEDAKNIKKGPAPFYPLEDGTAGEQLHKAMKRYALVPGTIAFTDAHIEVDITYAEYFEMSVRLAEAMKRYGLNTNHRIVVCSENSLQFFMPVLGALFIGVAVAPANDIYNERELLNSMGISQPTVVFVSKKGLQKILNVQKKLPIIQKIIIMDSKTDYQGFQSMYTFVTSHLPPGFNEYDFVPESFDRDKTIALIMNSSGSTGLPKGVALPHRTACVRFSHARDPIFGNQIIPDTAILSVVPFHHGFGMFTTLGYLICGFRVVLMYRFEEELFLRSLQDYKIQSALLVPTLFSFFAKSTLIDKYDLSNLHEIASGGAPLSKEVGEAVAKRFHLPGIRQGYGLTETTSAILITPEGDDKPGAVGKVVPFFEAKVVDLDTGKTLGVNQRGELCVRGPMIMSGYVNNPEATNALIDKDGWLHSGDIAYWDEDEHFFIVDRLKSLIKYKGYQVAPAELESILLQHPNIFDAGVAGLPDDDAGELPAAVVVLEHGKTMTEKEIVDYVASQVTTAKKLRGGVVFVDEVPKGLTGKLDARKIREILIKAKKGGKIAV

Row | Molecule | Luciferase Assay % Lum [1, 3] [%] | Luciferase Assay Z-score [1, 4] | Toxicity Assay % Fluor (Clone V cells) [%] | Toxicity Assay Z-score (Clone V cells) | Split Luciferase Assay % Lum Set 1 [2, 5] [%] | Split Luciferase Assay %Lum Set 2 [2, 6] [%] | Split Luciferase Assay Z-score Set 1 [2, 7] | Split Luciferase Assay Z-score Set 2 [2, 8] | Split Luciferase Assay %Lum Avg [2, 9] [%] | Luciferase Assay % Lum [1] [%] | Toxicity Assay % Fluor (Clone V cells; human, 16 h, 30 µM) [%] | Toxicity Assay Z-score (Clone V cells; human, 16 h, 30 µM) | further results
1 | O=S(=O)(NCCNC/C=C/c1ccc(Br)cc1)c1cccc2cnccc12 [H-89, reference compound] | 80.98 | -2.44 | 91.80 | -1.15 | 14.46 | 17.69 | -6.91 | -6.70 | 16.07 |  |  |  | Z-score (LCA primary screening) ([2]; 30 µM, 384-well, average of primary screening (n = 2), vs on-plate 0.3% DMSO): −6.81; dose-response behavior of repurchased compounds ([2]; 10-point dose response 0.25-50 µM, Clone V cells): purely inhibitory effects; IMin (% Luminescence) ([2]; antagonists, Clone V cells, 384-well, normalized to DMSO): 16.07 % Luminescence; action toward the FGF14:Nav1.6 C-tail interaction ([2]; dose-dependency validation using fresh compound samples): acted as antagonists; IC50 ([2]; estimated, 8-point dose response 0.25-30 µM, n = 4 per concentration, library compounds, read-out: IC50): 12.2 µM; IC50 ([2]; repurchased compounds, 10-point dose response 0.25-50 µM, n = 8 per concentration, Clone V cells, 384-well, read-out: in-cell IC50): 1.9 µM
2 | O=C1NC(=O)/C(=C/c2ccc3c(c2)OCO3)S1 [AS-041164] |  |  |  |  |  |  |  |  |  |  |  |  | Luciferase Assay % Lum (full-length luciferase counter-screen) [1, 10]: 84.77%; Luciferase Assay Z-score (full-length luciferase counter-screen) [1, 10]: -1.95; Toxicity Assay % Fluor (CTB cell viability fluorescence) (Clone V cells): 113.38%; Toxicity Assay Z-score (CTB cell viability) (Clone V cells): 1.87; Split Luciferase Assay Z-score Set 1 [2, 11]: -1.38; Split Luciferase Assay % Lum Set 1 [2, 12]: 82.95%; Split Luciferase Assay Z-score Set 2 [2, 13]: 0.50; Split Luciferase Assay %Lum Set 2 [2, 14]: 106.11%; Split Luciferase Assay %Lum Avg [2, 15]: 94.53%
3 | Nc1nc(Cl)nc2c1ncn2[C@@H]1O[C@H](CO)[C@@H](O)[C@@H]1F [Clofarabine] |  |  |  |  | 146.00 | 131.08 | 3.72 | 2.53 | 138.54 | 100.89 | 94.15 | -0.82 | Luciferase Assay Z-score [1]: 0.11
4 | OC[C@H]1O[C@@H](n2cnc3c2NC=NC[C@H]3O)C[C@@H]1O [Pentostatin] |  |  |  |  |  |  | 2.75 | 3.80 |  | 97.96 | 86.56 | -1.88 | Luciferase Assay Z-score [1]: -0.26; Split Luciferase Assay % Lum Set 1 [2]: 134.04%; Split Luciferase Assay %Lum Avg [2]: 140.36%; Split Luciferase Assay %Lum Set 2 [2]: 146.68%
5 | CC[C@H](CO)Nc1nc(NCc2ccccc2)c2ncn(C(C)C)c2n1 [Roscovitine] |  |  |  |  |  |  |  |  |  | 97.39 |  |  | Luciferase Assay Z-score [1]: -0.33; Toxicity Assay % Fluor (Clone V cells; human): 99.28%; Toxicity Assay Z-score (Clone V cells; human): -0.10; Split Luciferase Assay % Lum Set 1 [2]: 32.94%; Split Luciferase Assay %Lum Avg [2]: 39.88%; Split Luciferase Assay %Lum Set 2 [2]: 46.81%; Split Luciferase Assay Z-score Set 1 [2]: -5.42; Split Luciferase Assay Z-score Set 2 [2]: -4.33
6 | Nc1nc2nc[nH]c2c(=S)[nH]1 [Thioguanine] | 92.95 | -0.90 |  |  | 93.82 | 110.27 | -0.50 | 0.84 | 102.05 |  | 96.19 | -0.53 | 
7 | O=C(CCBr)N1CCN(C(=O)CCBr)CC1 [Pipobroman] |  |  |  |  | 125.34 | 121.72 | 2.05 | 1.77 | 123.53 | 102.03 | 98.07 | -0.27 | Luciferase Assay Z-score [1]: 0.26
8 | O=C(O)C(=O)O.[NH-][C@@H]1CCCC[C@H]1[NH-].[Pt+2] [Oxaliplatin] | 102.65 | 0.34 | 90.53 | -1.32 | 115.56 | 119.64 | 1.26 | 1.60 | 117.60 |  |  |  | 
9 | COc1cc2/c(=N/c3ccc(Br)cc3F)nc[nH]c2cc1OCC1CCN(C)CC1 [VANDETANIB] | 102.19 | 0.28 | 85.66 | -2.01 | 85.12 | 88.43 | -1.20 | -0.94 | 86.77 |  |  |  | 
10 | CCN(CCO)CCCOc1ccc2c(Nc3cc(CC(=O)Nc4cccc(F)c4)[nH]n3)ncnc2c1 [AZD1152-HQPA] | 84.20 | -2.02 |  |  | 87.29 | 100.91 | -1.03 | 0.07 | 94.10 |  | 93.28 | -0.94 | 
11 | Cc1cn(-c2cc(NC(=O)c3ccc(C)c(Nc4nccc(-c5cccnc5)n4)c3)cc(C(F)(F)F)c2)cn1 [NILOTINIB] | 102.54 | 0.33 | 88.70 | -1.58 | 109.04 | 122.76 | 0.73 | 1.85 | 115.90 |  |  |  | 
12 | COc1cc2ncnc(Nc3ccc(F)c(Cl)c3)c2cc1OCCCN1CCOCC1 [Gefitinib] |  |  |  |  | 97.08 | 102.99 | -0.24 | 0.24 | 100.03 | 85.80 | 87.95 | -1.68 | 
13 | NC(=O)NO [Hydroxyurea] |  |  |  |  |  |  |  |  |  |  |  |  | Luciferase Assay % Lum (full-length luciferase counter-screen) [1, 10]: 102.60%; Luciferase Assay Z-score (full-length luciferase counter-screen) [1, 10]: 0.33; Toxicity Assay % Fluor (CTB cell viability fluorescence) (Clone V cells): 115.47%; Toxicity Assay Z-score (CTB cell viability) (Clone V cells): 2.16; Split Luciferase Assay Z-score Set 1 [2, 11]: -0.85; Split Luciferase Assay % Lum Set 1 [2, 12]: 89.47%; Split Luciferase Assay Z-score Set 2 [2, 13]: 1.01; Split Luciferase Assay %Lum Set 2 [2, 14]: 112.35%; Split Luciferase Assay %Lum Avg [2, 15]: 100.91%
14 | LE 135 | 97.72 | -0.29 | 98.37 | -0.23 | 44.90 | 74.90 | -4.45 | -2.04 | 59.90 |  |  |  | 
